Literature values, collected in publication PMC7617459, “Comparative Evaluation and Profiling of Chemical Tools for the Nuclear Hormone Receptor Family 2” (ACS pharmacology & translational science, 2025).

Assays:
Set-up in all cases: method as in PMID 33114319
[1] = tested on: HNF4α; conditions: reporter gene assay; cited from earlier work
[2] = biological target: HNF4α; conditions: ITC; cited from earlier work
[3] = tested on: fructose-1,6-bisphosphatase 1 (FBP1); conditions: HepG2 cells; cited from earlier work

SMILES: OC(c1ccc(F)cc1)c1ccc(F)cc1 [compound 5]
- IC50 [1]: 24 µM
- Kd [2]: 1.7 µM
- expression of HNF4 target gene FBP1 [3]: diminished expression
